According to patent publication US20240082118A1, “TOPICAL COMPOSITIONS AND METHODS OF PREPARING THE SAME” (LANDA LABS (2012) LTD., priority 2021, published 2024):

Tested on: skin of pigs' ears
Assay: Ex vivo penetration of fluorescently marked nano-elements into pig ear skin
Format: in vitro ADME
Conditions: marker in water, or in water with the surfactants of Composition 2.21
Method: The distribution of nano-elements of the present compositions in various skin layers was tested ex vivo by applying onto the skin of pigs' ears nano-elements including a fluorescent dye (Nile red) allowing histological monitoring of their presence within the layers of the tissue onto which they were applied.
Tested composition (2) was prepared by adding 2 mg of Nile red fluorescent marker during the preparation of the CSSC premix, as described in Example 2.
The compositions were tested on two freshly harvested pig ears, collected on the same day, and kept fresh and cooled till use. The ears were washed with excess saline solution and wiped dry. They were then immobilized for the duration of the study by taping them onto a glass surface, their inner side facing down. Each ear was marked on its outer side with 6 circles having a diameter of about 1 cm.
25 microliters of each one of the samples were applied onto the skin near the center of the marked circle, each tested composition being applied in two or more separate circles for repeats. The ears with the applied test samples were then placed in an oven for an incubation time of 20 hours at a temperature of 32° C., to simulate the pigs' body temperature. […]
The tissue sections were evaluated by an expert for the presence and intensity of the marker using a fluorescence microscope at objective magnification of ×10. […]

In the case of `CCN(CC)c1ccc2nc3c4ccccc4c(=O)cc-3oc2c1` [Nile red, 9-(diethylamino)-5H-benzo[a]phenoxazin-5-one], the “penetration of the fluorescent marker into skin without nano-elements” value was “No penetration”.
